Experimental data from publication PMC12913247 (Pharmaceutical Research, 2025).
Several values for one entry are separate records, joined by “and”; a condition that tells them apart may be missing. Identical values can stand only once.

Legend:
CAT1 = CAT1 (Homo sapiens, UniProt P30825); experiment: [3H]L-arginine uptake by HIBCPP cells; type: cell-based; settings: for Relative uptake (% of control): 1 min
SLC35F2 = molecular target: T1, SLC35F2 (Homo sapiens, UniProt Q8IXU6); experiment: YM155 uptake by HIBCPP cells; type: cell-based; settings: 30 s
T1 sequence (Q8IXU6 1-374): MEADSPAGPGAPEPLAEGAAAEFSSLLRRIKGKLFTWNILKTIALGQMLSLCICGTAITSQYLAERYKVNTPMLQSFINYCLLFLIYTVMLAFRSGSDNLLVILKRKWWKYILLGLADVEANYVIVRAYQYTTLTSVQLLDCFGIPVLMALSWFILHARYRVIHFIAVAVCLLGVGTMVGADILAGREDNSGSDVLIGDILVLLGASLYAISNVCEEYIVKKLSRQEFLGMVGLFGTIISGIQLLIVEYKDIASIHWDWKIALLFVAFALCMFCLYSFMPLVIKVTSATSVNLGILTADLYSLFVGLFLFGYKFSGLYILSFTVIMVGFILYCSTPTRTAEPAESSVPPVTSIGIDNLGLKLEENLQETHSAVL

Transcellular transport = settings: human
GLUT1 = molecular target: T2, GLUT1 (Homo sapiens, UniProt P11166); experiment: [3H]3-O-methylglucose uptake by HIBCPP cells; type: cell-based; settings: 10 s, glucose-free IB
T2 sequence (P11166 1-492): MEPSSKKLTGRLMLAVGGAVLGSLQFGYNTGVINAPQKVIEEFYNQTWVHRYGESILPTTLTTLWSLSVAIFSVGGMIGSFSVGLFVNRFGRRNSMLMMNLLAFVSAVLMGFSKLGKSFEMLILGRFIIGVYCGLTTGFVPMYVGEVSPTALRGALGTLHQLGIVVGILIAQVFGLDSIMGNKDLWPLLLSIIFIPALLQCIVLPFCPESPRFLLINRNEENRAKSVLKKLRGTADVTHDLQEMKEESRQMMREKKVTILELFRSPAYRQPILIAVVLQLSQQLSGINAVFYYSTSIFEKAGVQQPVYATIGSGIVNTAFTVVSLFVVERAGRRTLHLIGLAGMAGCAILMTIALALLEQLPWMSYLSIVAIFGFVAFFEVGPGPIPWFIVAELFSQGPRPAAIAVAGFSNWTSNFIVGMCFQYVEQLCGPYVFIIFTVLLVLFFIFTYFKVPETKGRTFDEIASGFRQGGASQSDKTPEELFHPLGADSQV

HIBCPP cell layer = experiment: Transcellular transport; settings: for Papp,correct AP-to-BL / Papp,correct BL-to-AP: corrected by lucifer yellow; for Papp,correct in the BL-to-AP direction relative to the AP-to-BL direction: BL-to-AP greater than AP-to-BL
MCT1 = molecular target: T3, MCT1 (Homo sapiens, UniProt P53985); experiment: [14C]L-lactate uptake by HIBCPP cells; type: cell-based; settings: IB pH 6.0
T3 sequence (P53985 1-500): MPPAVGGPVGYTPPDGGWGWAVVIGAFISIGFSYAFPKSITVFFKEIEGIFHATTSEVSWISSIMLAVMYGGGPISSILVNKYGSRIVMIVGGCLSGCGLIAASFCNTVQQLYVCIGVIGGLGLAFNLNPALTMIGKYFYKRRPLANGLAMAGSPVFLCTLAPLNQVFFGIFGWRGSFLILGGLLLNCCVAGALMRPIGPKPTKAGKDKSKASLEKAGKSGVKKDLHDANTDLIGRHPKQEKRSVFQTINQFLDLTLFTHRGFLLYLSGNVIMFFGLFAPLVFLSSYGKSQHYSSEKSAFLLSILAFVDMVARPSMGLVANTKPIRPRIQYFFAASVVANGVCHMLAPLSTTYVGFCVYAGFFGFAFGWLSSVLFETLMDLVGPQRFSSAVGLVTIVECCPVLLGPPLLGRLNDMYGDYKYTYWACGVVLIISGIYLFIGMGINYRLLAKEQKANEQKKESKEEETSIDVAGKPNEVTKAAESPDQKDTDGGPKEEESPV

LAT1 = LAT1 (Homo sapiens, UniProt Q01650); experiment: Gabapentin uptake by HIBCPP cells; type: cell-based
GLAST = GLAST (Homo sapiens, UniProt P43003); experiment: [3H]L-glutamate uptake by HIBCPP cells; type: cell-based; settings: 1 min
PMAT = experiment: MPP+ uptake by HIBCPP cells; type: cell-based, human; settings: 5 min
OATP1B3 = experiment: Telmisartan uptake by HIBCPP cells; type: cell-based, human; settings: telmisartan uptake at 4°C, 30 s
[1] = Papp,correct (AP-to-BL)/Papp,correct (BL-to-AP)

Chain of LAT1 (Q01650 whole entry): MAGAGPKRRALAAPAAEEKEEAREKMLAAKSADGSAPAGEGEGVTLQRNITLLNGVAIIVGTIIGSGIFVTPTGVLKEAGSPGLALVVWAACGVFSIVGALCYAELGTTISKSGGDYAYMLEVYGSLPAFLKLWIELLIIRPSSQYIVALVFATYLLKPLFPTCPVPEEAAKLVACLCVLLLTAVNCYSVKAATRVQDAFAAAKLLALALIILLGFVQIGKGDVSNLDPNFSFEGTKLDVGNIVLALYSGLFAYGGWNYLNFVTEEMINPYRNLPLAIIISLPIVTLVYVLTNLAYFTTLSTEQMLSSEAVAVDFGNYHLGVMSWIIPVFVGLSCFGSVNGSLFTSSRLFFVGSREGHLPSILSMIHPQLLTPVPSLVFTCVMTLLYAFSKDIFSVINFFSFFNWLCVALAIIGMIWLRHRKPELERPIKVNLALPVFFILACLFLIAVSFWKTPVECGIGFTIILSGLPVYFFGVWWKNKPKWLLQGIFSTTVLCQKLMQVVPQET
Chain of LAT1 (P08195 102-630 partner): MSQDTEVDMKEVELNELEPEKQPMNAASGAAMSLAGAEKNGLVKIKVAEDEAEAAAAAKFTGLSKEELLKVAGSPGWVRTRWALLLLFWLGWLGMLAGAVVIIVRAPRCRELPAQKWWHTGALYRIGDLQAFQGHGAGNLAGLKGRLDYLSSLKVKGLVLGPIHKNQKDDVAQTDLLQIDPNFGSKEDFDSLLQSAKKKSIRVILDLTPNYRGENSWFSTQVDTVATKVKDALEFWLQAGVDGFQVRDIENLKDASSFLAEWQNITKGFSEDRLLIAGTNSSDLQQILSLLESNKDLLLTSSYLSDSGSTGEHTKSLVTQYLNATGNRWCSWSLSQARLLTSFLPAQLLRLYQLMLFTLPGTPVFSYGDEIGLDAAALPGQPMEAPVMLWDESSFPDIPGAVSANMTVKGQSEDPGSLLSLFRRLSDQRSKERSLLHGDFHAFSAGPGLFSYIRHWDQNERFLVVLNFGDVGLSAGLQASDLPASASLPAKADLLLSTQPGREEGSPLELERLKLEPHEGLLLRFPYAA
Chain of CAT1 (P30825 whole entry): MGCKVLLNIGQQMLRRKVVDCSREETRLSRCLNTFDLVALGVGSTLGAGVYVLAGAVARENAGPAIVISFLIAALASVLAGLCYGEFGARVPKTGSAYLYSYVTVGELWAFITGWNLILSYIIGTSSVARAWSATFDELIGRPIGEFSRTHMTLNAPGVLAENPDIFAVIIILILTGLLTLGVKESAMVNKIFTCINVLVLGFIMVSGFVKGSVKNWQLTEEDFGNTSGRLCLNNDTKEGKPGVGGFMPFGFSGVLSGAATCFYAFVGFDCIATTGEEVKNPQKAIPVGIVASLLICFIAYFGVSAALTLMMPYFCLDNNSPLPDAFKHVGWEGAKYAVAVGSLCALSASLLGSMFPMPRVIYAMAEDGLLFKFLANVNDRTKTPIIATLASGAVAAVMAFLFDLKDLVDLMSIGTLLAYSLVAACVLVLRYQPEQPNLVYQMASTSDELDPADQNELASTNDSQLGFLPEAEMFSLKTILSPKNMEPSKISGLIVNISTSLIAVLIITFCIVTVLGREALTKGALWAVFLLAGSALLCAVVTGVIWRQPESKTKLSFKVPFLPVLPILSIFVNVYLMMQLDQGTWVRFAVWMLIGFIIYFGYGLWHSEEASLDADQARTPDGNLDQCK
Chain of GLAST (P43003 whole entry): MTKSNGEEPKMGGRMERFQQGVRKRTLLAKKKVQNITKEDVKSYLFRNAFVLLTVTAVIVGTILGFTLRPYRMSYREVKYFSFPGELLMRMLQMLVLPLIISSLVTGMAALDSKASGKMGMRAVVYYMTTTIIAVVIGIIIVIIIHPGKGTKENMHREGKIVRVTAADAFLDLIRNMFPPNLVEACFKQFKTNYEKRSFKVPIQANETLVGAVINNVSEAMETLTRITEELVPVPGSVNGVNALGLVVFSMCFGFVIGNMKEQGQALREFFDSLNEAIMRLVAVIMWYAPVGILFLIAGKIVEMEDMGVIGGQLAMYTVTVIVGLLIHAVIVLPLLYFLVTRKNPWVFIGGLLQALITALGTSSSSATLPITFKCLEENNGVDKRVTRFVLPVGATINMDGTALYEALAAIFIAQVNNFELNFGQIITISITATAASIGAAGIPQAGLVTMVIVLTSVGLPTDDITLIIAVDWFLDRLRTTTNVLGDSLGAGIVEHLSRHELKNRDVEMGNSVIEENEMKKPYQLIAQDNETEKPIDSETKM

With `NCCC[C@H](N)C(=O)O` [L-Ornithine] the “Relative uptake (% of control)” value (CAT1; [3H]L-arginine uptake + 1 mM L-ornithine) was 18.7 ± 0.2 % of control.
In the case of `COCCn1c2c([n+](Cc3cnccn3)c1C)C(=O)c1ccccc1C2=O` [YM155], the “Relative uptake (% of control)” value (SLC35F2; YM155 uptake at 4°C) is reported as 27.8 ± 3.0 % of control, the Papp A→B (Transcellular transport) is reported as 3.36 ± 0.34 ×10⁻⁶ cm/s and the Papp A→B at 2 h (Transcellular transport) is reported as 6.66 ± 0.34 ×10⁻⁶ cm/s. It also gave a Papp B→A (Transcellular transport) of 1.32 ± 0.37 ×10⁻⁶ cm/s and a Papp B→A at 2 h (Transcellular transport) of 4.59 ± 0.37 ×10⁻⁶ cm/s.
For `OC[C@H]1OC(O)[C@H](O)[C@@H](O)[C@@H]1O` (some centres unmarked) [Glucose], the “Relative uptake (% of control)” value (GLUT1; [3H]3-O-methylglucose uptake + 5.6 mM glucose) was 54.7 ± 1.4 % of control.
With `[14CH3][14CH](O)[14C](=O)[O-].[Na+]` [[^14C]L-Lactate, lactic acid L-[^14C(U)] Na salt] the “Papp AP-to-BL” value (HIBCPP cell layer; AP side pH 6.0 BL side pH 7.4) was 30.6 ± 2.0 × 10^–6 cm/sec, the “Papp BL-to-AP” value (HIBCPP cell layer; AP side pH 6.0 BL side pH 7.4) was 4.71 ± 0.14 × 10^–6 cm/sec and the Efflux ratio (HIBCPP cell layer; AP side pH 6.0 BL side pH 7.4, Papp,correct (AP-to-BL)/(BL-to-AP)) was 19.0. The “Papp,correct AP-to-BL” value (HIBCPP cell layer; AP side pH 6.0 BL side pH 7.4) was 27.3 ± 2.0 × 10^–6 cm/sec, the “Papp,correct BL-to-AP” value (HIBCPP cell layer; AP side pH 6.0 BL side pH 7.4) was 1.44 ± 0.14 × 10^–6 cm/sec and the “Papp AP-to-BL” value (HIBCPP cell layer; AP side pH 7.4 BL side pH 6.0) was 3.05 ± 0.09 × 10^–6 cm/sec. The “Papp BL-to-AP” value (HIBCPP cell layer; AP side pH 7.4 BL side pH 6.0) was 11.5 ± 0.1 × 10^–6 cm/sec, the “Papp,correct BL-to-AP” value (HIBCPP cell layer; AP side pH 7.4 BL side pH 6.0) was 8.20 ± 0.11 × 10^–6 cm/sec and the “Papp AP-to-BL” value (HIBCPP cell layer; AP side pH 7.4 BL side pH 7.4) was 9.56 ± 0.20 × 10^–6 cm/sec. The “Papp BL-to-AP” value (HIBCPP cell layer; AP side pH 7.4 BL side pH 7.4) was 8.84 ± 0.36 × 10^–6 cm/sec, the Efflux ratio (HIBCPP cell layer; AP side pH 7.4 BL side pH 7.4, Papp,correct (AP-to-BL)/(BL-to-AP)) was 1.12 and the “Papp,correct AP-to-BL” value (HIBCPP cell layer; AP side pH 7.4 BL side pH 7.4) was 6.26 ± 0.20 × 10^–6 cm/sec. For the same compound, the “Papp,correct BL-to-AP” value (HIBCPP cell layer; AP side pH 7.4 BL side pH 7.4) was 5.57 ± 0.36 × 10^–6 cm/sec and the “Relative uptake (% of control)” value (MCT1; [14C]L-lactate uptake at 4°C, 30 s) was 17.7 % of control and 17.7 ± 0.4 % of control.
In the case of `NCC1(CC(=O)O)CCCCC1` [Gabapentin], the “Relative uptake (% of control)” value (LAT1; gabapentin uptake at 4°C, 1 min) is reported as 9.24 ± 0.54 % of control, the “Decrease of uptake at low temperatures” value (LAT1; gabapentin uptake, low temperature (4°C)) is reported as > 90% and the “Reduction of uptake into HIBCPP cells” value (LAT1; gabapentin, at 4 °C or in the presence of respective inhibitor) is reported as “more than 80%”. It also gave a Papp A→B (Transcellular transport) of 10.8 ± 0.6 ×10⁻⁶ cm/s, a Papp A→B at 2 h (Transcellular transport) of 14.1 ± 0.6 ×10⁻⁶ cm/s and a Papp B→A (Transcellular transport) of 0.213 ± 0.078 ×10⁻⁶ cm/s. The Papp B→A at 2 h (Transcellular transport) was 3 ± 0.08 ×10⁻⁶ cm/s and the Efflux ratio (HIBCPP cell layer; [1]) was 50.7.
With “glutamic acid L-[2,3,4-^3H] [[^3H]L-Glutamate]” the “Papp,correct in the BL-to-AP direction relative to the AP-to-BL direction” value (HIBCPP cell layer) was “approximately 2 times”, the Efflux ratio (HIBCPP cell layer; [1]) was 0.45 and the Efflux ratio (HIBCPP cell layer; Papp,correct (AP-to-BL)/Papp,correct (BL-to-AP), listed as [^3H]L-glutamate) was “below 1”. For the same compound, the “Relative uptake (% of control)” value (GLAST; [3H]L-glutamate uptake at 4°C) was 17.7 ± 3.0 % of control and the “Relative uptake (% of control)” value (GLAST; [3H]L-glutamate uptake at 4°C, listed as [^3H]L-glutamate) was 17.7 % of control.
With `N[C@@H](CC(=O)O)C(=O)O` [L-Aspartic acid] the “Relative uptake (% of control)” value (GLAST; [3H]L-glutamate uptake + 1 mM L-aspartic acid) was 65.3 ± 4.9 % of control and the “Relative uptake (% of control)” value (GLAST; [3H]L-glutamate uptake + 1 mM L-aspartic acid, listed as L-aspartic acid) was 65.3 % of control.
In the case of `C[n+]1ccc(-c2ccccc2)cc1` [MPP^+, 1-methyl-4-phenylpyridinium], the “Relative uptake (% of control)” value (PMAT; MPP+ uptake at 4°C) is reported as 22.2 ± 5.5 % of control and the Efflux ratio (HIBCPP cell layer; [1]) is reported as 1.03.
In the case of `NCCc1c[nH]c2ccc(O)cc12` [Serotonin], the “Relative uptake (% of control)” value (PMAT; MPP+ uptake + 1 mM serotonin) is reported as 48.6 ± 5.1 % of control.
For `CCCc1nc2c(C)cc(-c3nc4ccccc4n3C)cc2n1Cc1ccc(-c2ccccc2C(=O)O)cc1` [Telmisartan], the “Relative uptake (% of control)” value (OATP1B3) was 22.9 ± 1.4 % of control, the Papp A→B at 2 h (Transcellular transport) was 0.9 ± 0.23 ×10⁻⁶ cm/s and the Papp B→A (Transcellular transport) was 10.5 ± 3.3 ×10⁻⁶ cm/s. The Papp B→A at 2 h (Transcellular transport) was 13.8 ± 3.3 ×10⁻⁶ cm/s and the Efflux ratio (Transcellular transport; Efflux ratio, Papp,correct (AP-to-BL)/Papp,correct (BL-to-AP)) was < 1.
With `O=C1CN(/N=C/c2ccc(-c3ccc([N+](=O)[O-])cc3)o2)C(O)=N1` [Dantrolene, Dantrolene sodium] the Papp A→B (Transcellular transport) was 5.98 ± 0.77 ×10⁻⁶ cm/s, the Papp A→B at 2 h (Transcellular transport) was 9.28 ± 0.77 ×10⁻⁶ cm/s and the Papp B→A (Transcellular transport) was 11.5 ± 0.9 ×10⁻⁶ cm/s. The Papp B→A at 2 h (Transcellular transport) was 14.8 ± 0.9 ×10⁻⁶ cm/s, the “Papp,correct in the BL-to-AP direction relative to the AP-to-BL direction” value (HIBCPP cell layer) was 2 times and the Efflux ratio (HIBCPP cell layer; [1]) was 0.52.
With `NC(N)=Nc1nc(CSCCC(N)=NS(N)(=O)=O)cs1` [Famotidine] the “Relative uptake (% of control)” value (SLC35F2; YM155 uptake + 1 mM famotidine) was 40.0 ± 8.5 % of control.
For `[3H]CO[C@H]1[C@H](O)[C@@H](CO)OC(O)[C@@H]1O` (stereo partly drawn) [[^3H]3-O-Methylglucose, methyl-D-glucose 3-O-[methyl-^3H]], the “Relative uptake (% of control)” value (GLUT1; [3H]3-O-methylglucose uptake at 4°C) was 14.0 ± 1.3 % of control and the Efflux ratio (HIBCPP cell layer; [1]) was 1.05.
In the case of `NC(N)=NCCC[C@H](N)C(=O)O` [[^3H]L-Arginine, arginine L-[2,3,4-^3H]], the “Relative uptake (% of control)” value (CAT1; [3H]L-arginine uptake at 4°C) is reported as 6.80 ± 0.69 % of control, the “Decrease of uptake at low temperatures” value (CAT1; [3H]L-arginine uptake, low temperature (4°C)) is reported as > 90% and the “Reduction of uptake into HIBCPP cells” value (CAT1; [3H]L-arginine, at 4 °C or in the presence of respective inhibitor) is reported as “more than 80%”. For the same compound, the Efflux ratio (HIBCPP cell layer; [1]) was “exceed 1”.
In the case of `Nc1cc(COc2c(Cl)cc(C[C@H](N)C(=O)O)cc2Cl)c2oc(-c3ccccc3)nc2c1` [JPH203], the “Relative uptake (% of control)” value (LAT1; gabapentin uptake + 10 μM JPH203, 1 min) is reported as 13.1 ± 0.2 % of control.
For `Cc1[nH]nc(C(F)(F)F)c1Cc1sc2c(c1C(=O)N1C[C@](C)(O)CO1)c(=O)n(C)c(=O)n2C(C)C` [AZD3965], the “Relative uptake (% of control)” value (MCT1; [14C]L-lactate uptake + 20 nM AZD3965, 30 s) was 28.0 % of control and 28.0 ± 1.6 % of control.
